According to PMC7024361, “Vaginal Polyelectrolyte Layer-by-Layer Films Based on Chitosan Derivatives and Eudragit® S100 for pH Responsive Release of Tenofovir” (Marine Drugs, 2020):
Converted amounts (≈) assume the structure as drawn.

How the values were obtained:
[1] = Material cytotoxicity, CellTiter Glo; format: cell-based; settings: human, maximum concentration tested 1000 µg/mL
Method: To study cell toxicity, the materials were incubated in culture media at 37 °C and 5% CO2 for 48 h before the assay to ensure that any potential toxic component would be present in the dilutions to be tested. The cell culture was then treated with a suspension of base 5 serial dilutions of the most concentrated suspension (1000 µg/mL). Experiments were performed in lymphoblastic (MT-2) and macrophage-monocyte (THP-1) derived cell lines to evaluate toxicity on the immune cells present in vaginal or uterine mucosae, and in a uterine epithelial cell line (HEC-1A) to evaluate the potential damage to mucosal integrity (Figure 12).
Three human cell lines were used: a lymphoblastic cell line, MT-2 [65], a macrophage-monocyte derived cell line, THP-1 (ATCC® TIB-202) and a uterine/endometrial epithelial cell line, HEC-1A (ATCC® HTB-112™) (kindly provided by Maria Angeles Muñoz). All the cell lines were cultured in RPMI 1640 medium supplemented with 10 % (v/v) fetal bovine serum, 2 mM L-glutamine and […] streptomycin (all Whittaker M.A. Bio-Products, Walkerville, MD, USA) at 37 °C in a humidified atmosphere of 5 % CO2. To detach the HEC-1-A cells, the medium was removed and the flask was rinsed during 10 min with 1 to 2 mL of trypsin 0.25%—EDTA 0.03% solution. The medium was replaced every three days after cell centrifugation at 1500 rpm for 5 min.
Cell toxicity was measured using the CellTiter Glo kit (Promega, Madison, WI, USA). Cells were incubated in 96-well plates at a density of […] cells per well (MT-2 and THP-1) and 2 × 10^4 (HEC-1A) in complete medium. To assess the cytotoxic effect, cells were exposed to fresh medium containing different concentrations of lactic acid, tartaric acid, citric acid, TEC and ES100 suspensions, or the same concentration of PBS 1× as control. Experiments were performed in triplicate and the culture was maintained at 37 °C and 5% CO2 humidified atmosphere for 48 h. A standard method was followed to suspend the materials in PBS 1× [66]. After incubation for 48 h, the medium was removed from cell cultures and 50 µL of CellTiter Glo reactive was added to each well on the plate. Relative luminescence units (RLUs) were measured in a luminometer (Sirius, Berthold Detection Systems). Cytotoxic concentration 50 (CC50) values were calculated using GraphPad Prism Software (non-linear regression, log inhibitor versus response). The results of the cytotoxic assay are shown as the average of at least three individual experiments.

HIV = test system: HIV; design: method as in PMID 22964245; settings: women; cited from earlier work
[2] = HEC-1A uterine/endometrial epithelial cells
[3] = MT-2 lymphoblastic cells, MT-2, 48 h
[4] = THP-1 macrophage-monocyte derived cells, THP1, 48 h

| Compound | CC50 at 48 h [1, 2] | CC50 at 48 h [1, 3] | CC50 at 48 h [1, 4] | cervicovaginal fluid concentration that confers protection against HIV (HIV) |
| --- | --- | --- | --- | --- |
| O=C(O)CC(O)(CC(=O)O)C(=O)O [Citric acid, citric acid] | > 1000 µg/mL | > 1000 µg/mL | ~1000 µg/mL (≈ 5.2 mM) | – |
| CCOC(=O)CC(O)(CC(=O)OCC)C(=O)OCC [TEC, triethylcitrate] | > 1000 µg/mL | ~1000 µg/mL (≈ 3.62 mM) | > 1000 µg/mL | – |
| CC(O)C(=O)O (stereo not drawn) [Lactic acid, L(+)-Lactic acid] | > 1000 µg/mL | > 1000 µg/mL | > 1000 µg/mL | – |
| O=C(O)C(O)C(O)C(=O)O (stereo not drawn) [Tartaric acid, L(+)-Tartaric acid] | ~200 µg/mL (≈ 1.33 mM) | > 1000 µg/mL | > 1000 µg/mL | – |
| C[C@H](Cn1cnc2c(N)ncnc21)OCP(=O)(O)O [TFV, Tenofovir] | – | – | – | 1000 ng/mL |
